Measured values published in US4178442A, “Novel cinnamoyles piperazines and homopiperazines, the method of preparing them and their application in therapeutics” (Delalande S. A., priority 1977, dated 1979).
Like-named read-outs stand apart in the source and are kept apart here.

Assays:
[1] = in vivo; conditions: iv; for mortality: read-out: Toxicity (Mortality); for LD50: read-out: Toxicity: LD50
Description: *LD50 or percentage of mortality which is given between brackets

[2] = tested on: anaesthetized dog; test: Antiangorous activity on anaesthetized dog: consumption of oxygen in the left ventricule and cardiac effort (KATZ's index); assay type: in vivo; conditions: for inhibition in vivo at 2.5 mg/kg / inhibition in vivo at 0.6 mg/kg / inhibition in vivo at 0.12 mg/kg / inhibition in vivo at 1.25 mg/kg / inhibition in vivo at 0.625 mg/kg / inhibition in vivo at 5 mg/kg / inhibition in vivo at 2.3 mg/kg / inhibition in vivo at […]: Canis lupus familiaris, iv; for inhibition in vivo at […]: 0.15 mg/kg i.v. slow perfusion
Method: The antiangorous activity was tested on an anaesthetized dog (sodium pentobarbital 30 mg/kg/i.v.).
The consumption of oxygen in the left ventricule was estimated by the product of the coronary venous flow and the coronary arteriovenous difference in oxygen (% volume).
The coronary venous flow was measured at the coronary venous sinus by means of a modified Morawitz cannula, introduced under radioscopic control.
The cardiac effort was estimated according to KATZ's index, by the product of the average arterial pressure and the cardiac frequency.
The cardiac frequency was estimated from the electrocardiogram recorded with D2 derivation.
It should be noted that the compounds tested were injected intravenously with slow perfusion.

[3] = 2.5 mg/kg i.v. slow perfusion, read-out: Diminution in consumption of O2
[4] = 2.5 mg/kg i.v. slow perfusion, read-out: Diminution in the cardiac effort (IK)
[5] = 0.12 mg/kg i.v. slow perfusion, read-out: Diminution in consumption of O2
[6] = 0.12 mg/kg i.v. slow perfusion, read-out: Diminution in the cardiac effort (IK)
[7] = 0.625 mg/kg i.v. slow perfusion

Question: For `COc1cc(/C=C/C(=O)N2CCN(CC(O)COc3ccc(C)c4c3OCCO4)CC2)cc(OC)c1OC` (stereo not drawn) [760 847], which mortality ([1]; 169 mg/kg i.v.) is on record?
Answer: The mortality was 20%.

Question: What about the “Diminution in consumption of O2: in time” value ([2]; 2.5 mg/kg i.v. slow perfusion) of the same molecule?
Answer: The value was 60 min.

Question: And the inhibition in vivo at 2.5 mg/kg [2, 3]?
Answer: Its inhibition in vivo at 2.5 mg/kg is 47%.

Question: And the inhibition in vivo at 2.5 mg/kg [2, 4]?
Answer: The inhibition in vivo at 2.5 mg/kg was 14%.

Question: With `CCCC(=O)c1ccc(OCC(O)CN2CCN(C(=O)/C=C/c3cc(OC)c(OC)c(OC)c3)CC2)c2c1OCCO2` (stereo not drawn) [760 866] as the molecule, how does the mortality ([1]; 360 mg/kg i.v.) read?
Answer: Its mortality is 30%.

Question: What about the “Diminution in consumption of O2: in time” value ([2]; 0.6 mg/kg i.v. slow perfusion) of the same molecule?
Answer: Its value is 30 min.

Question: What about the “Diminution in the cardiac effort (IK): in time” value (from here on “Diminution in the cardiac effort”) ([2]; 0.6 mg/kg i.v. slow perfusion) of the same molecule?
Answer: Its value is 30 min.

Question: What about the inhibition in vivo at 0.6 mg/kg ([2]; 0.6 mg/kg i.v. slow perfusion, read-out: Diminution in consumption of O2) of the same molecule?
Answer: The inhibition in vivo at 0.6 mg/kg was 54%.

Question: What about the inhibition in vivo at 0.6 mg/kg ([2]; 0.6 mg/kg i.v. slow perfusion, read-out: Diminution in the cardiac effort (IK)) of the same molecule?
Answer: Its inhibition in vivo at 0.6 mg/kg is 20%.

Question: For `COc1cc(/C=C/C(=O)N2CCN(CC(O)COc3ccc(NC(C)=O)c4c3OCCO4)CC2)cc(OC)c1OC` (stereo not drawn) [760 868], which mortality ([1]; 215 mg/kg i.v.) is on record?
Answer: Its mortality is 40%.

Question: What about the “Diminution in consumption of O2: in time” value ([2]; 0.12 mg/kg i.v. slow perfusion) of the same molecule?
Answer: Its value is 30 min.

Question: What about the “Diminution in the cardiac effort” value ([2]; 0.12 mg/kg i.v. slow perfusion) of the same molecule?
Answer: Its value is 30 min.

Question: And the inhibition in vivo at 0.12 mg/kg [2, 5]?
Answer: The inhibition in vivo at 0.12 mg/kg was 33%.

Question: And the inhibition in vivo at 0.12 mg/kg [2, 6]?
Answer: The inhibition in vivo at 0.12 mg/kg was 18%.

Question: Which mortality ([1]; 400 mg/kg i.v.) does the source give for `CCCC(=O)Nc1ccc(OCC(O)CN2CCN(C(=O)/C=C/c3cc(OC)c(OC)c(OC)c3)CC2)cc1` (stereo not drawn) [760 892] here?
Answer: The mortality was 40%.

Question: What about the “Diminution in consumption of O2: in time” value ([2]; 2.5 mg/kg i.v. slow perfusion) of the same molecule?
Answer: The value was 60 min.

Question: And the “Diminution in the cardiac effort” value ([2]; 2.5 mg/kg i.v. slow perfusion)?
Answer: The value was 45 min.

Question: And the inhibition in vivo at 2.5 mg/kg [2, 3]?
Answer: The inhibition in vivo at 2.5 mg/kg was 74%.

Question: What about the inhibition in vivo at 2.5 mg/kg [2, 4] of the same molecule?
Answer: Its inhibition in vivo at 2.5 mg/kg is 22%.

Question: Which mortality ([1]; 400 mg/kg i.v.) does the source give for `COc1cc(/C=C/C(=O)N2CCN(CCCOc3ccc(C(C)=O)c4c3OCCO4)CC2)cc(OC)c1OC` [760 939, 1-[3-(4-acetyl-2,3-ethylenedioxy)phenoxy]-propyl-4-(3,4,5-trimethoxycinnamoyl)piperazine] here?
Answer: Its mortality is 20%.

Question: What about the “Diminution in consumption of O2: in time” value ([2]; 1.25 mg/kg i.v. slow perfusion) of the same molecule?
Answer: Its value is 30 min.

Question: And the “Diminution in the cardiac effort” value ([2]; 1.25 mg/kg i.v. slow perfusion)?
Answer: The value was 23 min.

Question: And the inhibition in vivo at 1.25 mg/kg ([2]; 1.25 mg/kg i.v. slow perfusion, read-out: Diminution in consumption of O2)?
Answer: Its inhibition in vivo at 1.25 mg/kg is 27%.

Question: What about the inhibition in vivo at 1.25 mg/kg ([2]; 1.25 mg/kg i.v. slow perfusion, read-out: Diminution in the cardiac effort (IK)) of the same molecule?
Answer: Its inhibition in vivo at 1.25 mg/kg is 11%.

Question: With `COc1cc(/C=C/C(=O)N2CCN(CC(O)COc3cccc4c3CCCC4=O)CC2)cc(OC)c1OC` (stereo not drawn) [760 986] as the molecule, how does the LD50 [1] read?
Answer: Its LD50 is 218 mg/kg.

Question: And the “Diminution in consumption of O2: in time” value ([2]; 2.5 mg/kg i.v. slow perfusion)?
Answer: The value was 60 min.

Question: What about the “Diminution in the cardiac effort” value ([2]; 2.5 mg/kg i.v. slow perfusion) of the same molecule?
Answer: The value was 60 min.

Question: What about the inhibition in vivo at 2.5 mg/kg [2, 3] of the same molecule?
Answer: The inhibition in vivo at 2.5 mg/kg was 61%.

Question: What about the inhibition in vivo at 2.5 mg/kg [2, 4] of the same molecule?
Answer: Its inhibition in vivo at 2.5 mg/kg is 27%.

Question: With `CNC(=O)Nc1ccc(OCC(O)CN2CCN(C(=O)/C=C/c3cc(OC)c(OC)c(OC)c3)CC2)cc1` (stereo not drawn) [770 056] as the molecule, how does the LD50 [1] read?
Answer: The LD50 was 160 mg/kg.

Question: What about the “Diminution in consumption of O2: in time” value [2, 7] of the same molecule?
Answer: The value was 15 min.

Question: And the “Diminution in the cardiac effort” value [2, 7]?
Answer: The value was 15 min.

Question: And the inhibition in vivo at 0.625 mg/kg ([2]; 0.625 mg/kg i.v. slow perfusion, read-out: Diminution in consumption of O2)?
Answer: Its inhibition in vivo at 0.625 mg/kg is 49%.

Question: And the inhibition in vivo at 0.625 mg/kg ([2]; 0.625 mg/kg i.v. slow perfusion, read-out: Diminution in the cardiac effort (IK))?
Answer: The inhibition in vivo at 0.625 mg/kg was 22%.

Question: Which results are given for `COc1cc(/C=C/C(=O)N2CCN(CC(O)COc3ccc(C(N)=O)cc3)CC2)cc(OC)c1OC` (stereo not drawn) [770 058]?
Answer: LD50 [1]: 315 mg/kg; Diminution in consumption of O2: in time ([2]; 2.5 mg/kg i.v. slow perfusion): 30 min; Diminution in the cardiac effort (IK): in time ([2]; 2.5 mg/kg i.v. slow perfusion): 30 min; inhibition in vivo at 2.5 mg/kg [2, 3]: 36%; inhibition in vivo at 2.5 mg/kg [2, 4]: 35%

Question: What does the source list for `COc1cc(/C=C/C(=O)N2CCN(CC(O)CSc3ccc(C)cc3)CC2)cc(OC)c1OC` (stereo not drawn) [770 059]?
Answer: LD50 [1]: 91 mg/kg; Diminution in consumption of O2: in time ([2]; 5 mg/kg i.v. slow perfusion): 15 min; Diminution in the cardiac effort (IK): in time ([2]; 5 mg/kg i.v. slow perfusion): 15 min; inhibition in vivo at 5 mg/kg ([2]; 5 mg/kg i.v. slow perfusion, read-out: Diminution in consumption of O2): 64%; inhibition in vivo at 5 mg/kg ([2]; 5 mg/kg i.v. slow perfusion, read-out: Diminution in the cardiac effort (IK)): 12%

Question: For `COc1cc(/C=C/C(=O)N2CCN(CC(O)CSc3ccccc3)CC2)cc(OC)c1OC` (stereo not drawn) [770 060], which LD50 [1] is on record?
Answer: Its LD50 is 195 mg/kg.

Question: And the “Diminution in consumption of O2: in time” value ([2]; 2.3 mg/kg i.v. slow perfusion)?
Answer: The value was 23 min.

Question: And the “Diminution in the cardiac effort” value ([2]; 2.3 mg/kg i.v. slow perfusion)?
Answer: Its value is 30 min.

Question: What about the inhibition in vivo at 2.3 mg/kg ([2]; 2.3 mg/kg i.v. slow perfusion, read-out: Diminution in consumption of O2) of the same molecule?
Answer: Its inhibition in vivo at 2.3 mg/kg is 58%.

Question: And the inhibition in vivo at 2.3 mg/kg ([2]; 2.3 mg/kg i.v. slow perfusion, read-out: Diminution in the cardiac effort (IK))?
Answer: The inhibition in vivo at 2.3 mg/kg was 35%.

Question: For `COc1cc(C(C)=O)ccc1OCC(O)CN1CCN(C(=O)/C=C/c2cc(OC)c(OC)c(OC)c2)CC1` (stereo not drawn) [770 073], which LD50 [1] is on record?
Answer: The LD50 was 158 mg/kg.

Question: And the “Diminution in consumption of O2: in time” value ([2]; 0.12 mg/kg i.v. slow perfusion)?
Answer: Its value is 30 min.

Question: And the “Diminution in the cardiac effort” value ([2]; 0.12 mg/kg i.v. slow perfusion)?
Answer: The value was 15 min.

Question: What about the inhibition in vivo at 0.12 mg/kg [2, 5] of the same molecule?
Answer: The inhibition in vivo at 0.12 mg/kg was 24%.

Question: And the inhibition in vivo at 0.12 mg/kg [2, 6]?
Answer: The inhibition in vivo at 0.12 mg/kg was 16%.

Question: What does the source list for `CNC(=O)Nc1ccc(OCC(O)CN2CCN(C(=O)/C=C/c3cc(OC)c(OC)c(OC)c3)CC2)c2c1OCCO2` (stereo not drawn) [770 077]?
Answer: mortality ([1]; 400 mg/kg i.v.): 0%; inhibition in vivo at […] ([2]; read-out: Diminution in consumption of O2): 44%; inhibition in vivo at […] ([2]; read-out: Diminution in the cardiac effort (IK)): 28%
